According to ChEMBL document CHEMBL1201862, “PubChem BioAssay data set” (2004):
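Cultured in 96-well plates, cells were exposed to test compound for 48 hours across five concentrations. At the GI50, growth is halved.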 Active and inactive are the calls of the source. Cut-off read from the data, not from the text of the source: active = GI50 up to about 1.1 µM and inactive = higher.

Columns and labels:
Assay in all cases: growth of human tumour cells (NCI), 48 h
[1] = tested on: OVCAR-3
[2] = tested on: OVCAR-5
[3] = tested on: T47D
[4] = tested on: KM12
[5] = tested on: NCI-H460
[6] = tested on: PC-3
[7] = tested on: SF-295
[8] = tested on: NCI-H23
[9] = tested on: CAKI-1
[10] = tested on: NCI/ADR-RES
[11] = tested on: MOLT-4
[12] = tested on: HOP-62
[13] = tested on: UACC-257
[14] = tested on: TK-10
[15] = tested on: HCC 2998
[16] = tested on: DU-145
[17] = tested on: ACHN
[18] = tested on: 786-0
[19] = tested on: Malme-3M
[20] = tested on: HT-29

Measured: GI50

COc1ccc([C@H]2CC(=O)C[C@H](c3ccc(OC)cc3)C23C(=O)c2ccccc2C3=O)cc1
inactive: [1] 2.97 µM | [2] 12.6 µM | [3] 4.31 µM | [4] 4.13 µM | [5] 3.65 µM | [6] 4.21 µM | [7] 3.95 µM | [8] 26.1 µM | [9] 3.06 µM | [10] 1.94 µM | [11] 4.79 µM | [12] 6.25 µM | [13] 2.29 µM | [14] 7.82 µM | [15] 8.55 µM | [16] 16.4 µM | [17] 16.6 µM | [18] 5.57 µM | [19] 5 µM | [20] 3.46 µM

CCOC(=O)N1CC2(C)C=CC1C(C(=O)OC)C2 (stereo not given)
inactive: [1] > 100 µM | [2] > 100 µM | [3] > 100 µM | [4] > 100 µM | [5] > 100 µM | [6] > 100 µM | [7] > 100 µM | [8] > 100 µM | [9] > 100 µM | [10] > 100 µM | [11] > 100 µM | [12] > 100 µM | [13] > 100 µM | [14] > 100 µM | [15] > 100 µM | [16] > 100 µM | [17] > 100 µM | [18] > 100 µM | [19] > 100 µM | [20] > 100 µM

CC(C)[C@@H]1NC(=O)[C@@H]2N=C(O[C@H]2C)[C@H](C(C)C)NC(=O)C2N=C1O[C@H]2C
inactive: [1] > 100 µM | [2] > 100 µM | [3] > 100 µM | [4] > 100 µM | [5] > 100 µM | [6] > 100 µM | [7] > 100 µM | [8] > 100 µM | [9] > 100 µM | [10] > 100 µM | [11] > 100 µM | [12] > 100 µM | [13] > 100 µM | [14] > 100 µM | [15] > 100 µM | [16] > 100 µM | [17] > 100 µM | [18] > 100 µM | [19] > 100 µM | [20] > 100 µM

CCCc1cc(COC)c(C#N)c(O)n1
inactive: [1] > 100 µM | [2] > 100 µM | [3] > 100 µM | [4] > 100 µM | [5] > 100 µM | [6] > 100 µM | [7] > 100 µM | [8] > 100 µM | [9] > 100 µM | [10] > 100 µM | [11] > 100 µM | [12] > 100 µM | [13] > 100 µM | [14] > 100 µM | [15] > 100 µM | [16] > 100 µM | [17] > 100 µM | [18] > 100 µM | [19] > 100 µM | [20] > 100 µM

CC(=O)CC[N+](C)(C)C
inactive: [1] 37.3 µM | [2] 44.6 µM | [3] 29.2 µM | [4] 77.3 µM | [5] 65.8 µM | [6] 76.9 µM | [7] 83.6 µM | [8] 29.2 µM | [9] 1.9 µM | [10] 38.9 µM | [11] 6.15 µM | [12] > 100 µM | [13] 25.8 µM | [14] 27.6 µM | [15] 52.5 µM | [16] 88.5 µM | [17] 17 µM | [18] 23.6 µM | [19] 16.1 µM | [20] 32.7 µM

C=CCC1(Sc2ccccn2)Sc2ccc3ccccc3c2-c2c(ccc3ccccc23)S1
inactive: [1] > 100 µM | [2] > 100 µM | [3] > 100 µM | [4] > 100 µM | [5] > 100 µM | [6] > 100 µM | [7] > 100 µM | [8] > 100 µM | [9] > 100 µM | [10] > 100 µM | [11] > 100 µM | [12] > 100 µM | [13] > 100 µM | [14] > 100 µM | [15] > 100 µM | [16] > 100 µM | [17] > 100 µM | [18] > 100 µM | [19] > 100 µM | [20] > 100 µM

CCOC(=O)c1c(Br)c(-c2ccc(OC)cc2)c(Br)n1C
inactive: [1] 17.1 µM | [2] 72.3 µM | [3] 13.4 µM | [4] 11.4 µM | [5] 52.2 µM | [6] 11.1 µM | [7] 25.2 µM | [8] 28 µM | [9] > 10 µM | [10] 5.18 µM | [11] 8.57 µM | [12] 11.8 µM | [13] 23.2 µM | [14] 20.7 µM | [15] > 10 µM | [16] 32.2 µM | [17] 29.6 µM | [18] 21.6 µM | [19] 12.1 µM | [20] 12.7 µM

CC(C)NC(=O)OCCN=C1c2ccccc2C(Br)C(Br)c2ccccc21 (stereo not given)
inactive: [1] 12.1 µM | [2] 12 µM | [3] 3.25 µM | [4] 21.8 µM | [5] 10.4 µM | [6] 11.6 µM | [7] 19 µM | [8] 15.6 µM | [9] 7.01 µM | [10] 16 µM | [11] 6.19 µM | [12] 14.5 µM | [13] 7.35 µM | [14] 5.87 µM | [15] 22.7 µM | [16] 6.98 µM | [17] 7.6 µM | [18] 4.14 µM | [19] 5.4 µM | [20] 4.7 µM

N#CC(c1ccccc1)N(CCc1ccccc1)C(=O)c1ccccc1 (stereo not given)
inactive: [1] > 100 µM | [2] > 100 µM | [3] > 100 µM | [4] > 100 µM | [5] > 100 µM | [6] > 93.8 µM | [7] 38.5 µM | [8] 71.9 µM | [9] > 100 µM | [10] 42.9 µM | [11] > 100 µM | [12] 34 µM | [13] > 100 µM | [14] > 75.2 µM | [15] > 100 µM | [16] > 100 µM | [17] > 91.8 µM | [18] 27.7 µM | [19] > 72.1 µM | [20] > 100 µM

CCOC(=O)c1cccc(/N=N/c2ncc(/C=C/C(=O)OC)[nH]2)c1
inactive: [1] 23.3 µM | [2] 55 µM | [3] 29.3 µM | [4] 23.2 µM | [5] 14.3 µM | [6] 24.3 µM | [7] 20.4 µM | [8] 28.2 µM | [9] 14.5 µM | [10] 22 µM | [11] 6.97 µM | [12] 16.3 µM | [13] 16.2 µM | [14] 26.5 µM | [15] 17.9 µM | [16] 19.1 µM | [17] 22 µM | [18] 14.6 µM | [19] 22.6 µM | [20] 23.5 µM
